Experimental data published in patent US20230055500A1, “COMPOSITION FOR PREVENTING OR TREATING ISCHEMIA REPERFUSION INJURY COMPRISING NADPH OXIDASE 1 INHIBITOR AS ACTIVE INGREDIENT” (KYUNGPOOK NATIONAL UNIVERSITY INDUSTRY-ACADEMIC COOPERATION …, priority 2020, published 2023).
“Also recorded” adds a separate entry of the source.

Tests used:
MDCK cells [1] = assay: ROS production in H2O2-treated MDCK cells; type: cell-based; conditions: H2O2 1.4 mM 1 h, ML171 1 and 2.5 μM, FIG. 6f
Protocol: (§1) C57BL/6 mice were intraperitoneally injected with 60 mg/kg of ML171, a selective NOX inhibitor or excipient at a time, renal ischemia-reperfusion injury (IRI) was induced by clamping bilateral renal vessels for 30 min. MDCK cells were incubated with H2O2 (1.4 mM) for 1 h to induce oxidative stress and treated with ML171 (1 and 2.5 μM). Renal damage was estimated using renal function tests and histology. NOX expression, oxidative stress markers, apoptosis assays and MAPK pathways were also evaluated in renal tissue and MDCK cells.

apoptosis = assay: Apoptosis assays in the kidney (Caspase-3 activity, TUNEL, BCL-2/BAX; IRI model); type: in vivo; conditions: C57BL/6 mice, renal IRI, 60 mg/kg intraperitoneal
Protocol: as §1

NOX = NOX mRNA expression in mouse kidney (IRI model); type: in vivo; conditions: C57BL/6 mice, renal IRI, 60 mg/kg intraperitoneal; FIG. 2a, 2b
Protocol: as §1

[2] = test system: reactive oxygen species (ROS); assay: Reactive oxygen species measurement in the kidney (IRI model); type: in vivo; conditions: C57BL/6 mice, renal IRI, 60 mg/kg intraperitoneal; FIG. 2d, 2e
Protocol: as §1

[3] = test system: renal ischemia-reperfusion injury (IRI); assay: Renal ischemia-reperfusion injury mouse model: renal function tests and histology; type: in vivo, C57BL/6 mice; conditions: for tissue damage due to ischemia-reperfusion (IRI-mediated damage): mouse model of renal ischemia reperfusion, overall statement
Protocol: as §1

ERK [4] = assay: MAPK pathway western blot in kidney tissue (IRI model); type: in vivo; conditions: C57BL/6 mice, renal IRI, 60 mg/kg intraperitoneal, FIG. 5a, 5b
Protocol: as §1

ERK [5] = assay: MAPK pathway (ERK phosphorylation) in H2O2-treated MDCK cells; type: cell-based; conditions: H2O2 1.4 mM 1 h, ML171 1 and 2.5 μM, FIG. 8a, 8b
Protocol: as §1

MDCK cells [6] = assay: NOX-related gene and oxidative stress marker expression in H2O2-treated MDCK cells; type: cell-based; conditions: H2O2 1.4 mM 1 h, ML171 1 and 2.5 μM
Protocol: as §1

MDCK cells [7] = assay: Apoptosis assays in H2O2-treated MDCK cells (Caspase-3 activity, BCL-2/BAX, TUNEL); type: cell-based; conditions: H2O2 1.4 mM 1 h, ML171 1 and 2.5 μM
Protocol: as §1

CC(=O)c1ccc2c(c1)Nc1ccccc1S2 [ML171]
ROS production in cells (MDCK cells [1]): significantly reduced ROS
Caspase-3 activity in the kidney (apoptosis; FIG. 3a, 60 mg/kg): significant apoptosis alleviation effect; also recorded: reversed a decrease in Bcl-2 and an increase in Caspase-3 activity
apoptosis, TUNEL assay histological staining of kidney (apoptosis; FIG. 3b): alleviated apoptosis
protein expression levels of apoptosis markers BCL-2 and BAX in the kidneys (apoptosis; FIG. 3c, 60 mg/kg): effectively inhibited apoptosis; also recorded: reversed a decrease in Bcl-2
NOX mRNA expression level in mouse kidney (NOX): significantly reduced
reactive oxygen species (ROS) in the kidney [2]: effectively blocked ROS
level of kidney damage in the blood (renal function test) ([3]; C57BL/6 mice, renal IRI (bilateral clamping 30 min), 60 mg/kg intraperitoneal, FIG. 1a, 1b): a significant decrease
damage to renal tubular epithelial cells, PAS staining ([3]; C57BL/6 mice, renal IRI, 60 mg/kg intraperitoneal, FIG. 1c): reduced damage to renal tubular epithelial cells
renal fibrosis, Trichrome stain ([3]; C57BL/6 mice, renal IRI, 60 mg/kg intraperitoneal, FIG. 4a, 4b): fibrosis was significantly reduced
tissue damage due to ischemia-reperfusion (IRI-mediated damage) [3]: significantly attenuated IRI-mediated damage
tissue damage due to ischemia-reperfusion (IRI-mediated damage) ([3]; listed as compound of Formula 1): exhibits an effect of alleviating tissue damage due to ischemia-reperfusion
phosphorylation of ERK in kidney tissue (western blot) (ERK [4]): effectively reduced it; also recorded: affect ERK signaling
ERK phosphorylation in MDCK cells (ERK [5]): significantly reduced and regulated this; also recorded: affect ERK signaling
changes in oxidative stress-related enzymes, SOD and GXP production (MDCK cells [6]): alleviated by ML171 treatment
expression of NOX-related genes / oxidative stress markers (NOX1, NOX2, p40) (MDCK cells [6]; FIG. 6a-6e): effectively decreased; also recorded: reduced the expression of NOX1, NOX2 and p40
Caspase-3 activity (MDCK cells [7]; FIG. 7a): a decrease in Caspase-3 activity
protein expression levels of apoptosis markers BCL-2 and BAX (MDCK cells [7]; FIG. 7b): apoptosis was significantly inhibited; also recorded: significant increase in Bcl-2 levels
apoptosis pattern, intracellular TUNEL assay staining (MDCK cells [7]; FIG. 7c): effectively blocked it
